Source: patent publication US10000499B2, “Methyl diazepane orexin receptor antagonists” (MERCK SHARP & DOHME CORP., priority 2014, dated 2018)

Tests used:
human orexin-2 receptor = target: T1, human orexin-2 receptor (Homo sapiens, UniProt O43614); experiment: FLIPR Ca2+ flux assay, OX2R; type: cell-based; conditions: for IC50: CHO cells expressing human orexin-2 receptor, agonist 70 pM Ala-6,12 orexin-A, read-out: OX2R FLIPR; for Fold Selective: OX2R over OX1R, from FLIPR values
T1 construct: expressed in transfected cells; host or cells: CHO cells (grown under G418 selection)
T1 sequence (O43614 1-444): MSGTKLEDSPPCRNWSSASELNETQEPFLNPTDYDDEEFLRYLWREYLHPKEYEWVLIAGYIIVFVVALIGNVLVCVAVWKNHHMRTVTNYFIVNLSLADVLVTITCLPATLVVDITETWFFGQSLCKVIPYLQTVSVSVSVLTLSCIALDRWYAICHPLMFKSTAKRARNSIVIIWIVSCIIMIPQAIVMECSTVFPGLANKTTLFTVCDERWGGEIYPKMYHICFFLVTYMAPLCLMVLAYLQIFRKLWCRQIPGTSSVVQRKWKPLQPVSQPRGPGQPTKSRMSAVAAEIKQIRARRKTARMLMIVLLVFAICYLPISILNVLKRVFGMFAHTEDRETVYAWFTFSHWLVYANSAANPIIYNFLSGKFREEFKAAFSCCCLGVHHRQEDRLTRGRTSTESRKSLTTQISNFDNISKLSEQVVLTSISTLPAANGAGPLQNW
Method: (§1) For intracellular calcium measurements, Chinese hamster ovary (CHO) cells expressing the rat orexin-1 receptor or the human orexin-2 receptor, are grown in Iscove's modified DMEM containing 2 mM L-glutamine, […], 1% hypoxanthine-thymidine supplement, 100 U/ml penicillin, 100 μg/ml streptomycin and 10% heat-inactivated fetal calf serum (FCS). The cells are seeded at 20,000 cells/well into Becton-Dickinson black 384-well clear bottom sterile plates coated with poly-D-lysine. All reagents were from GIBCO-Invitrogen Corp. The seeded plates are incubated overnight at 37° C. and 5% CO2. Ala-6,12 human orexin-A as the agonist is prepared as a 1 mM stock solution in 1% bovine serum albumin (BSA) and diluted in assay buffer (HBSS containing 20 mM HEPES, 0.1% BSA and 2.5 mM probenecid, pH7.4) for use in the assay at a final concentration of 70 pM. Test compounds are prepared as 10 mM stock solution in DMSO, then diluted in 384-well plates, first in DMSO, then assay buffer. On the day of the assay, cells are washed 3 times with 100 μl assay buffer and then incubated for 60 min (37° C., 5% CO2) in 60 μl assay buffer containing 1 μM Fluo-4AM ester, 0.02% pluronic acid, and 1% BSA, The dye loading solution is then aspirated and cells are washed 3 times with 100 μl assay buffer, 30 μl of that same buffer is left in each well. Within the Fluorescent Imaging Plate Reader (FLIPR, Molecular Devices), test compounds are added to the plate in a volume of 25 μl, incubated for 5 min and finally 25 μl of agonist is added. Fluorescence is measured for each well at 1 second intervals for 5 minutes and the height of each fluorescence peak is compared to the height of the fluorescence peak induced by 70 pM Ala-6,12 orexin-A with buffer in place of antagonist. […] The intrinsic orexin receptor antagonist activity of a compound which may be used in the present invention may be determined by these assays.

rat orexin-1 receptor = target: T2, rat orexin-1 receptor (Rattus norvegicus, UniProt P56718); experiment: FLIPR Ca2+ flux assay, OX1R; type: cell-based; conditions: CHO cells expressing rat orexin-1 receptor; agonist 70 pM Ala-6,12 orexin-A
T2 construct: expressed in transfected cells; host or cells: CHO cells (grown under G418 selection)
T2 sequence (P56718 1-416): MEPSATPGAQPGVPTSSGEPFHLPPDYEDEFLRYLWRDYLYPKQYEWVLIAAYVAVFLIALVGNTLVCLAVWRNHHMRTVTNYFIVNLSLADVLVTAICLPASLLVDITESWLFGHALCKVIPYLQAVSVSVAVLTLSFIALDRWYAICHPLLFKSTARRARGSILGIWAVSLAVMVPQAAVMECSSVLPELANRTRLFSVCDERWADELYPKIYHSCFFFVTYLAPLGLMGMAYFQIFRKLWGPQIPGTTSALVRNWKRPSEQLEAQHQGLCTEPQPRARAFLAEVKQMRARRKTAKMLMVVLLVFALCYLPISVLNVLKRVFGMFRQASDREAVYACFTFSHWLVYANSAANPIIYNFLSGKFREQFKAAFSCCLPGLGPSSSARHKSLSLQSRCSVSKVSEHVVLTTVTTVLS
Method: as §1

Row | SMILES | IC50 (human orexin-2 receptor) [nM] | Fold Selective (human orexin-2 receptor) | IC50 (rat orexin-1 receptor) [nM]
1 | C[C@@H]1CCN(c2nccn3ccnc23)CCN1C(=O)c1ccccc1C1(C#N)CC1 [Example 21, (R)-1-(2-(4-(imidazo[1,2-a]pyrazin-8-yl)-7-methyl-1,4-diazepane-1-carbonyl)phenyl)cyclopropanecarbonitrile] | 65 | 153 | > 10000
2 | C[C@@H]1CCN(c2nccn3ccnc23)CCN1C(=O)c1cccnc1-n1cccn1 [Example 25, 8-[(5R)-5-methyl-4-{[2-(1H-pyrazol-1-yl)pyridin-3-yl]carbonyl}-1,4-diazepan-1-yl]imidazo[1,2-a]pyrazine] | 126 | 79 | > 10000
3 | C[C@@H]1CCN(c2cccc(N3CCN(C)C3=O)n2)CCN1C(=O)c1ccccc1-n1nccn1 [Example 11, 1-methyl-3-{6-[(5R)-5-methyl-4-{[2-(2H-1,2,3-triazol-2-yl)phenyl]carbonyl}-1,4-diazepan-1-yl]pyridin-2-yl}imidazolidin-2-one] | 104 | 46 | 4760
4 | C[C@@H]1CCN(c2cccc(C(C)(C)O)n2)CCN1C(=O)c1ccccc1-n1nccn1 [Example 20, (R)-(2-(2H-1,2,3-triazol-2-yl)phenyl)(4-(6-(2-hydroxypropan-2-yl)pyridin-2-yl)-7-methyl-1,4-diazepan-1-yl)methanone] | 32 | 61 | 1960
5 | C[C@@H]1CCN(c2cccc(N3CCN(C)C3=O)n2)CCN1C(=O)c1cc(F)ccc1-n1nccn1 [Example 16, 1-{6-[(5R)-4-{[5-fluoro-2-(2H-1,2,3-triazol-2-yl)phenyl]carbonyl}-5-methyl-1,4-diazepan-1-yl]pyridin-2-yl}-3-methylimidazolidin-2-one] | 197 | 50 | > 10000
6 | COc1ccnc(N2CC[C@@H](C)N(C(=O)c3cccnc3OCC(F)F)CC2)c1 [Example 6, (5R)-4-{[2-(2,2-difluoroethoxy)pyridin-3-yl]carbonyl}-1-(4-methoxypyridin-2-yl)-5-methyl-1,4-diazepane] | 183 | 54 | > 10000
7 | CC(=O)N(C)c1cccc(N2CC[C@@H](C)N(C(=O)c3ccccc3-n3nccn3)CC2)n1 [Example 12, N-methyl-N-{6-[(5R)-5-methyl-4-{[2-(2H-1,2,3-triazol-2-yl)phenyl]carbonyl}-1,4-diazepan-1-yl]pyridin-2-yl}acetamide] | 85 | 117 | > 10000
8 | COc1ccnc(N2CC[C@@H](C)N(C(=O)c3ccsc3-n3nccn3)CC2)c1 [Example 3, (R)-(2-(2H-1,2,3-triazol-2-yl)thiophen-3-yl)(4-(4-methoxypyridin-2-yl)-7-methyl-1,4-diazepan-1-yl)methanone] | 122 | 82 | > 10000
9 | CC(C)C(=O)N(C)c1cccc(N2CC[C@@H](C)N(C(=O)c3ccccc3-n3nccn3)CC2)n1 [Example 17, N,2-dimethyl-N-{6-[(5R)-5-methyl-4-{[2-(2H-1,2,3-triazol-2-yl)phenyl]carbonyl}-1,4-diazepan-1-yl]pyridin-2-yl}propanamide] | 48 | 208 | > 10000
10 | C[C@@H]1CCN(c2cccc(N(C)C(=O)C3CC3)n2)CCN1C(=O)c1ccccc1-n1nccn1 [Example 18, N-methyl-N-{6-[(5R)-5-methyl-4-{[2-(2H-1,2,3-triazol-2-yl)phenyl]carbonyl}-1,4-diazepan-1-yl]pyridin-2-yl}cyclopropanecarboxamide] | 71 | 128 | 9130
11 | COc1ccnc(N2CC[C@@H](C)N(C(=O)c3cccnc3-n3cccn3)CC2)c1 [Example 5, (5R)-1-(4-methoxypyridin-2-yl)-5-methyl-4-{[2-(1H-pyrazol-1-yl)pyridin-3-yl]carbonyl}-1,4-diazepane] | 103 | 97 | > 10000
12 | CC(O)c1cccc(N2CC[C@@H](C)N(C(=O)c3ccccc3-n3nccn3)CC2)n1 (stereo partly drawn) [Example 19, (2-(2H-1,2,3-triazol-2-yl)phenyl)((7R)-4-(6-(1-hydroxyethyl)pyridin-2-yl)-7-methyl-1,4-diazepan-1-yl)methanone] | 20 | 127 | 2550
13 | COc1ccnc(N2CC[C@@H](C)N(C(=O)c3ccccc3C3CCC3)CC2)c1 [Example 8, (5R)-4-[(2-cyclobutylphenyl)carbonyl]-1-(4-methoxypyridin-2-yl)-5-methyl-1,4-diazepane] | 123 | 81 | > 10000
